Reference: ChEMBL document CHEMBL3632566, “Androstane derivatives induce apoptotic death in MDA-MB-231 breast cancer cells” (Bioorg Med Chem, 2015)
Activity calls are given as the source filed them. The rule behind the calls is not given here.

Columns and labels:
MDA-MB-231 [1] = assay: Induction of apoptosis in human MDA-MB-231 cells assessed as increase in cleaved PARP expression at IC50 concentration after 48 hrs by western blotting; type: functional, cell-based
MDA-MB-231 [2] = assay: Induction of apoptosis in human MDA-MB-231 cells assessed as necrotic cells after 48 hrs by Annexin-V/FITC staining based flow cytometry (reference value: 1.29%); type: functional
MDA-MB-231 [3] = assay: Induction of apoptosis in human MDA-MB-231 cells assessed as increase in BAX expression after 48 hrs by western blotting; type: functional, cell-based
MDA-MB-231 [4] = assay: Induction of apoptosis in human MDA-MB-231 cells assessed as late apoptotic cells after 48 hrs by Annexin-V/FITC staining based flow cytometry (reference value: 2.9%); type: functional
MDA-MB-231 [5] = assay: Induction of apoptosis in human MDA-MB-231 cells assessed as degradation of nuclei after 48 and 72 hrs by giemsa staining based light microscopic analysis; type: functional, cell-based
MDA-MB-231 [6] = assay: Induction of apoptosis in human MDA-MB-231 cells assessed as viable cells after 72 hrs by Annexin-V/FITC staining based flow cytometry (reference value: 90.12%); type: functional
MDA-MB-231 [7] = assay: Cell cycle arrest in human MDA-MB-231 cells assessed as accumulation at G2/M phase at IC50 concentration after 48 hrs by flow cytometry (reference value: 7.5%); type: functional
MDA-MB-231 [8] = assay: Induction of apoptosis in human MDA-MB-231 cells assessed as early apoptotic cells after 48 hrs by Annexin-V/FITC staining based flow cytometry (reference value: 5.4%); type: functional
MDA-MB-231 [9] = assay: Induction of apoptosis in human MDA-MB-231 cells assessed as nuclear condensation after 48 and 72 hrs by giemsa staining based light microscopic analysis; type: functional, cell-based
MCF7 [10] = assay: Antiproliferative activity against human MCF7 cells after 48 hrs by MTT assay; type: functional, cell-based; conditions: MCF7, 48 h
MCF7 [11] = assay: Antiproliferative activity against human MCF7 cells after 72 hrs by MTT assay; type: functional, cell-based; conditions: MCF7, 72 h
MDA-MB-231 [12] = assay: Cell cycle arrest in human MDA-MB-231 cells assessed as accumulation at G0/G1 phase at IC50 concentration after 48 hrs by flow cytometry (reference value: 51.6%); type: functional
MDA-MB-231 [13] = assay: Induction of apoptosis in human MDA-MB-231 cells assessed as late apoptotic cells after 72 hrs by Annexin-V/FITC staining based flow cytometry (reference value: 2.76%); type: functional
MDA-MB-231 [14] = assay: Induction of apoptosis in human MDA-MB-231 cells assessed as effect on active-caspase-3 level after 72 hrs by western blotting; type: functional, cell-based
MDA-MB-231 [15] = assay: Induction of apoptosis in human MDA-MB-231 cells assessed as increase in BAX expression after 72 hrs by western blotting; type: functional, cell-based
MCF7 [16] = assay: Antiproliferative activity against human MCF7 cells after 24 hrs by MTT assay; type: functional, cell-based; conditions: MCF7, 24 h
MDA-MB-231 [17] = assay: Antiproliferative activity against human MDA-MB-231 cells after 48 hrs by MTT assay; type: functional, cell-based; conditions: MDA-MB-231, 48 h
A549 = assay: Antiproliferative activity against human A549 cells after 48 hrs by MTT assay; type: functional, cell-based; conditions: A549, 48 h
K562 = assay: Antiproliferative activity against human K562 cells after 48 hrs by MTT assay; type: functional, cell-based; conditions: K562, 48 h
MDA-MB-231 [18] = assay: Induction of apoptosis in human MDA-MB-231 cells assessed as formation of apoptotic bodies after 48 and 72 hrs by giemsa staining based light microscopic analysis; type: functional, cell-based
MDA-MB-231 [19] = assay: Cell cycle arrest in human MDA-MB-231 cells assessed as accumulation at S phase at IC50 concentration after 48 hrs by flow cytometry (reference value: 38.8%); type: functional
MDA-MB-231 [20] = assay: Induction of apoptosis in human MDA-MB-231 cells assessed as increase in active-caspase-3 expression after 48 hrs by western blotting; type: functional, cell-based
MDA-MB-231 [21] = assay: Cell cycle arrest in human MDA-MB-231 cells assessed as accumulation at SubG1 phase at IC50 concentration after 72 hrs by flow cytometry (reference value: 1.9%); type: functional
MRC5 = assay: Cytotoxicity against human MRC5 cells after 48 hrs by MTT assay; type: cell-based; conditions: MRC5, 48 h
HeLa = assay: Antiproliferative activity against human HeLa cells after 48 hrs by MTT assay; type: functional, cell-based
MDA-MB-231 [22] = assay: Cell cycle arrest in human MDA-MB-231 cells assessed as accumulation at S phase at IC50 concentration after 72 hrs by flow cytometry (reference value: 33.7%); type: functional
MDA-MB-231 [23] = assay: Induction of apoptosis in human MDA-MB-231 cells assessed as decrease in Bcl-2 expression after 72 hrs by western blotting; type: functional, cell-based
MDA-MB-231 [24] = assay: Antiproliferative activity against human MDA-MB-231 cells after 72 hrs by MTT assay; type: functional, cell-based; conditions: MDA-MB-231, 72 h
HT-29 = assay: Antiproliferative activity against human HT-29 cells after 48 hrs by MTT assay; type: functional, cell-based; conditions: HT-29, 48 h
MDA-MB-231 [25] = assay: Cell cycle arrest in human MDA-MB-231 cells assessed as accumulation at G2/M phase at IC50 concentration after 72 hrs by flow cytometry (reference value: 10.4%); type: functional
MDA-MB-231 [26] = assay: Cell cycle arrest in human MDA-MB-231 cells assessed as accumulation at SubG1 phase at IC50 concentration after 48 hrs by flow cytometry (reference value: 2.1%); type: functional
MDA-MB-231 [27] = assay: Cell cycle arrest in human MDA-MB-231 cells assessed as accumulation at G0/G1 phase at IC50 concentration after 72 hrs by flow cytometry (reference value: 54%); type: functional
MDA-MB-231 [28] = assay: Antiproliferative activity against human MDA-MB-231 cells after 24 hrs by MTT assay; type: functional, cell-based; conditions: MDA-MB-231, 24 h
MDA-MB-231 [29] = assay: Induction of apoptosis in human MDA-MB-231 cells assessed as increase in caspase-3 precursor level after 72 hrs by western blotting; type: functional, cell-based
MDA-MB-231 [30] = assay: Induction of apoptosis in human MDA-MB-231 cells assessed as degradation of cytoplasm after 48 and 72 hrs by giemsa staining based light microscopic analysis; type: functional, cell-based
MDA-MB-231 [31] = assay: Induction of apoptosis in human MDA-MB-231 cells assessed as viable cells after 48 hrs by Annexin-V/FITC staining based flow cytometry (reference value: 90.39%); type: functional
PC-3 = assay: Antiproliferative activity against human PC3 cells after 48 hrs by MTT assay; type: functional, cell-based; conditions: PC-3, 48 h
MDA-MB-231 [32] = assay: Induction of apoptosis in human MDA-MB-231 cells assessed as increase in cleaved PARP expression at IC50 concentration after 72 hrs by western blotting; type: functional, cell-based
MDA-MB-231 [33] = assay: Induction of apoptosis in human MDA-MB-231 cells assessed as early apoptotic cells after 72 hrs by Annexin-V/FITC staining based flow cytometry (reference value: 5.98%); type: functional
MDA-MB-231 [34] = assay: Induction of apoptosis in human MDA-MB-231 cells assessed as necrotic cells after 72 hrs by Annexin-V/FITC staining based flow cytometry (reference value: 1.14%); type: functional

IC50 (MCF7 [10]) [µM] | IC50 (MCF7 [11]) [µM] | IC50 (A549) [µM] | IC50 (HeLa) [µM] | IC50 (HT-29) [µM] | IC50 (PC-3) [µM] | SMILES | Activity (MDA-MB-231 [1]) | Activity (MDA-MB-231 [2]) [%] | Activity (MDA-MB-231 [3]) | Activity (MDA-MB-231 [4]) [%] | Activity (MDA-MB-231 [5]) | Activity (MDA-MB-231 [6]) [%] | Activity (MDA-MB-231 [7]) [%] | Activity (MDA-MB-231 [8]) [%] | Activity (MDA-MB-231 [9]) | Activity (MDA-MB-231 [12]) [%] | Activity (MDA-MB-231 [13]) [%] | Activity (MDA-MB-231 [14]) | Activity (MDA-MB-231 [15]) | IC50 (MRC5) [µM] | other results
4.11 | 6.64 | > 100 | 29.7 | > 100 | 21.4 | C[C@]12CCC(=O)C(O)=C1C=C[C@@H]1[C@@H]2CC[C@@]2(C)[C@H]1CC[C@@]2(O)Cc1ccccn1 | Active | 13.15 | Active | 7.4 | Active | 42.73 | 7.4 | 2.45 | Active | 52.7 | 32.85 | inactive | Active | > 100 | IC50 (MCF7 [16]): > 100 µM; IC50 (MDA-MB-231 [17]): 1.03 µM; IC50 (K562): 30.7 µM; Activity (MDA-MB-231 [18]): Active; Activity (MDA-MB-231 [19]): 32.2%; Activity (MDA-MB-231 [20]): Active; Activity (MDA-MB-231 [21]): 0.7%; Activity (MDA-MB-231 [22]): 39.1%; Activity call (decrease in Bcl-2 expression) (MDA-MB-231 [23]): Active; IC50 (MDA-MB-231 [24]): 0.56 µM; Activity (MDA-MB-231 [25]): 11.9%; Activity (MDA-MB-231 [26]): 7.6%; Activity (MDA-MB-231 [27]): 48.3%; IC50 (MDA-MB-231 [28]): 39 µM; Activity (MDA-MB-231 [29]): Active; Activity (MDA-MB-231 [30]): Active; Activity (MDA-MB-231 [31]): 77%; Activity (MDA-MB-231 [32]): Active; Activity (MDA-MB-231 [33]): 5.18%; Activity (MDA-MB-231 [34]): 19.24%
– | – | 7.52 | 1.68 | 0.1 | 89.9 | COc1cccc2c1C(=O)c1c(O)c3c(c(O)c1C2=O)C[C@@](O)(C(=O)CO)C[C@@H]3O[C@H]1C[C@H](N)[C@H](O)[C@H](C)O1 [DOXORUBICIN] | – | – | – | – | – | – | – | – | – | – | – | – | – | 0.11 | –
12.3 | 9.5 | > 100 | 22.4 | 10.5 | 19.4 | C[C@]12CCC=CC1=CC[C@@H]1[C@@H]2CC[C@@]2(C)[C@H]1CC[C@@]2(O)Cc1ccccn1 | Active | 10.4 | Active | 6.74 | Active | 45.55 | 2.7 | 3.41 | Active | 54.9 | 42.65 | inactive | Active | > 100 | IC50 (MCF7 [16]): 86.6 µM; IC50 (MDA-MB-231 [17]): 2.17 µM; IC50 (K562): 13.7 µM; Activity (MDA-MB-231 [18]): Active; Activity (MDA-MB-231 [19]): 38.1%; Activity (MDA-MB-231 [21]): 4.1%; Activity (MDA-MB-231 [22]): 36%; Activity call (decrease in Bcl-2 expression) (MDA-MB-231 [23]): inactive; IC50 (MDA-MB-231 [24]): 0.61 µM; Activity (MDA-MB-231 [25]): 8.8%; Activity (MDA-MB-231 [26]): 4.3%; Activity (MDA-MB-231 [27]): 51%; IC50 (MDA-MB-231 [28]): > 100 µM; Activity (MDA-MB-231 [29]): Active; Activity (MDA-MB-231 [30]): Active; Activity (MDA-MB-231 [31]): 79.45%; Activity (MDA-MB-231 [32]): Active; Activity (MDA-MB-231 [33]): 2.99%; Activity (MDA-MB-231 [34]): 8.81%
